Laboratory results reported in ChEMBL document CHEMBL1154065, “Discovery of novel P3 sulfonamide-capped inhibitors of HCV NS3 protease. Inhibitors with improved cellular potencies” (Bioorg Med Chem, 2009).

How the values were obtained:
[1] = Inhibition of HCV NS3 protease by continuous spectrophotometric assay; parameters: species or system Hepacivirus hominis
[2] = Selectivity for HCV NS3 protease over human neutrophil elastase
[3] = test system: Hepatitis C virus; test: Antiviral activity against Hepatitis C virus infected in human hepatoma cell by replicon assay; format: functional, Hepacivirus hominis
[4] = test system: Rattus norvegicus; test: AUC (0 to 6 hrs) in po dosed rat; format: ADME, organism-based, Plasma; parameters: time < 6 hr, route oral; details: in vivo
[5] = AUC (0 to 6 hrs) in rat at 10 mg/kg, po; format: ADME, organism-based; parameters: time < 6 hr, dose 10 mg/kg, route oral; details: plasma
[6] = test system: Hepatitis C virus; test: Ratio of boceprevir EC90 to compound EC90 for Hepatitis C virus infected in human hepatoma cell; format: functional, Hepacivirus hominis
[7] = AUC (0 to 6 hrs) in monkey at 3 mg/kg, po; format: ADME, organism-based, Macaca mulatta; parameters: time < 6 hr, dose 3 mg/kg, route oral; details: rhesus monkey, plasma

SMILES | Ki [1] [nM] | Selectivity ratio [2] | EC90 [3] [nM] | AUC [4] [µM·h] | AUC(0-t) at 6 h [5] [µM·h] | AUC(0-t) at 6 h [7] [µM·h] | Ratio [6]
CC(C)C[C@@](C)(CN(C)S(=O)(=O)c1ccccc1)NC(=O)N[C@H](C(=O)N1C[C@H]2[C@@H]([C@H]1C(=O)NC(CC1CCC1)C(=O)C(N)=O)C2(C)C)C(C)(C)C (some centres undefined) | 80 | – | – | – | – | – | –
CC(C)[C@@H](CNS(=O)(=O)c1cccs1)NC(=O)N[C@H](C(=O)N1C[C@H]2[C@@H]([C@H]1C(=O)NC(CC1CCC1)C(=O)C(N)=O)C2(C)C)C(C)(C)C (some centres undefined) | 23 | – | 600 | – | – | – | –
CC(C)[C@@H](CNS(C)(=O)=O)NC(=O)N[C@H](C(=O)N1C[C@H]2[C@@H]([C@H]1C(=O)NC(CC1CCC1)C(=O)C(N)=O)C2(C)C)C(C)(C)C (some centres undefined) | 31 | – | 2000 | – | – | – | –
CC(C)(C)NC(=O)N[C@H](C(=O)N1C[C@H]2[C@@H]([C@H]1C(=O)NC(CC1CCC1)C(=O)C(N)=O)C2(C)C)C(C)(C)C (some centres undefined) [BOCEPREVIR] | 14 | 2200 | 350 | – | – | – | –
C=CCNC(=O)C(=O)C(CCC)NC(=O)[C@@H]1[C@@H]2[C@H](CN1C(=O)[C@@H](NC(=O)N[C@H](CN(C)S(=O)(=O)c1cccs1)C(C)(C)C)C(C)(C)C)C2(C)C (some centres undefined) | 10 | – | 260 | 1.38 | – | – | –
C=CCNC(=O)C(=O)C(CCC)NC(=O)[C@@H]1[C@@H]2[C@H](CN1C(=O)[C@@H](NC(=O)N[C@H](CN(C)S(=O)(=O)c1ccccn1)C(C)(C)C)C(C)(C)C)C2(C)C (some centres undefined) | 14 | – | 180 | 1.02 | – | – | –
C=CCNC(=O)C(=O)C(CCC)NC(=O)[C@@H]1[C@@H]2[C@H](CN1C(=O)[C@@H](NC(=O)N[C@H](CN(C)S(=O)(=O)CC)C(C)(C)C)C(C)(C)C)C2(C)C (some centres undefined) | 10 | – | 150 | 0.34 | – | – | –
CC(C)[C@@H](CN(C)S(=O)(=O)c1cccs1)NC(=O)N[C@H](C(=O)N1C[C@H]2[C@@H]([C@H]1C(=O)NC(CC1CCC1)C(=O)C(N)=O)C2(C)C)C(C)(C)C (some centres undefined) | 12 | – | 100 | – | – | – | –
C=CCNC(=O)C(=O)C(CCC)NC(=O)[C@@H]1[C@@H]2[C@H](CN1C(=O)[C@@H](NC(=O)N[C@H](CN(C)S(=O)(=O)N(C)C)C(C)(C)C)C1Cc3ccccc3C1)C2(C)C (some centres undefined) | 11 | – | 100 | – | – | – | –
CN(CC1(NC(=O)N[C@H](C(=O)N2C[C@H]3[C@@H]([C@H]2C(=O)NC(CC2CCC2)C(=O)C(N)=O)C3(C)C)C(C)(C)C)CCCCC1)S(=O)(=O)c1ccccc1 (some centres undefined) | 12 | – | 400 | – | – | – | –
CC(C)(C)[C@H](NC(=O)N[C@H](CNS(=O)(=O)c1ccccc1)C(C)(C)C)C(=O)N1C[C@H]2[C@@H]([C@H]1C(=O)NC(CC1CCC1)C(=O)C(N)=O)C2(C)C (some centres undefined) | 13 | – | – | – | – | – | –
CC[C@H](C)[C@@H](CN(C)S(=O)(=O)c1ccccc1)NC(=O)N[C@H](C(=O)N1C[C@H]2[C@@H]([C@H]1C(=O)NC(CC1CCC1)C(=O)C(N)=O)C2(C)C)C(C)(C)C (some centres undefined) | 13 | – | 250 | – | – | – | –

More lines, main results first:

Ki [1] [nM] | Selectivity ratio [2] | EC90 [3] [nM] | AUC [4] [µM·h] | AUC(0-t) at 6 h [5] [µM·h] | AUC(0-t) at 6 h [7] [µM·h] | SMILES | Ratio [6]
6 | 680 | 130 | – | – | – | CC(C)[C@H](CN(C)S(=O)(=O)c1ccccc1)NC(=O)N[C@H](C(=O)N1C[C@H]2[C@@H]([C@H]1C(=O)NC(CC1CC1)C(=O)C(N)=O)C2(C)C)C(C)(C)C (some centres undefined) | –
8 | 3100 | 140 | – | – | – | CC(C)C(CN(C)S(=O)(=O)c1ccccc1)NC(=O)N[C@H](C(=O)N1C[C@H]2[C@@H]([C@H]1C(=O)NC(CC1CCC1)C(=O)C(N)=O)C2(C)C)C(C)(C)C (single isomer, unassigned) | –
10 | – | 550 | – | – | – | CC(C)[C@@H](CNS(=O)(=O)c1ccccc1)NC(=O)N[C@H](C(=O)N1C[C@H]2[C@@H]([C@H]1C(=O)NC(CC1CC1)C(=O)C(N)=O)C2(C)C)C(C)(C)C (some centres undefined) | –
6 | – | 200 | – | – | – | CC(C)[C@H](NC(=O)N[C@H](C(=O)N1C[C@H]2[C@@H]([C@H]1C(=O)NC(CC1CC1)C(=O)C(N)=O)C2(C)C)C(C)(C)C)C(=O)OC(C)(C)C (some centres undefined) | –
5 | – | 75 | – | – | – | CN(C[C@@H](NC(=O)N[C@H](C(=O)N1C[C@H]2[C@@H]([C@H]1C(=O)NC(CC1CCC1)C(=O)C(N)=O)C2(C)C)C(C)(C)C)C(C)(C)C)S(=O)(=O)c1ccccc1 (some centres undefined) | –
4 | – | 150 | – | – | – | CCS(=O)(=O)N(C)C[C@@H](NC(=O)N[C@H](C(=O)N1C[C@H]2[C@@H]([C@H]1C(=O)NC(CC1CCC1)C(=O)C(N)=O)C2(C)C)C(C)(C)C)C(C)(C)C (some centres undefined) | –
4 | – | 350 | – | – | – | CC(C)[C@@H](CN(C)S(C)(=O)=O)NC(=O)N[C@H](C(=O)N1C[C@H]2[C@@H]([C@H]1C(=O)NC(CC1CCC1)C(=O)C(N)=O)C2(C)C)C(C)(C)C (some centres undefined) | –
4 | – | 60 | 0.11 | – | – | CN(C[C@@H](NC(=O)N[C@H](C(=O)N1C[C@H]2[C@@H]([C@H]1C(=O)NC(CC1CCC1)C(=O)C(N)=O)C2(C)C)C(C)(C)C)C(C)(C)C)S(=O)(=O)c1cccs1 (some centres undefined) | –
5 | – | 90 | 0.09 | – | – | CN(C[C@@H](NC(=O)N[C@H](C(=O)N1C[C@H]2[C@@H]([C@H]1C(=O)NC(CC1CCC1)C(=O)C(N)=O)C2(C)C)C(C)(C)C)C(C)(C)C)S(=O)(=O)C1CC1 (some centres undefined) | –
8 | – | 130 | – | – | – | CC(C)[C@@H](CN(C)S(=O)(=O)c1ccccc1)NC(=O)N[C@H](C(=O)N1C[C@H]2[C@@H]([C@H]1C(=O)NC(CC1CC1)C(=O)C(N)=O)C2(C)C)C(C)(C)C (some centres undefined) | –
6 | – | 100 | – | – | – | C=CCNC(=O)C(=O)C(CCC)NC(=O)[C@@H]1[C@@H]2[C@H](CN1C(=O)[C@@H](NC(=O)N[C@H](CN(C)S(=O)(=O)CC)C(C)(C)C)C1Cc3ccccc3C1)C2(C)C (some centres undefined) | –
6 | – | 80 | – | 1.74 | – | C=CCNC(=O)C(=O)C(CCCC)NC(=O)[C@@H]1[C@@H]2[C@H](CN1C(=O)[C@@H](NC(=O)N[C@H](CN(C)S(=O)(=O)N(C)C)C(C)(C)C)C1CCCCC1)C2(C)C (some centres undefined) | –
5 | – | 150 | 0.06 | – | – | CN(C[C@@H](NC(=O)N[C@H](C(=O)N1C[C@H]2[C@@H]([C@H]1C(=O)NC(CC1CCC1)C(=O)C(N)=O)C2(C)C)C(C)(C)C)C(C)(C)C)S(C)(=O)=O (some centres undefined) | 2
6 | – | 60 | – | 1.2 | 0.69 | C=CCNC(=O)C(=O)C(CCCC)NC(=O)[C@@H]1[C@@H]2[C@H](CN1C(=O)[C@@H](NC(=O)N[C@H](CN(C)S(=O)(=O)CC)C(C)(C)C)C1Cc3ccccc3C1)C2(C)C (some centres undefined) | 5
